Activity calls are given as the source filed them. No cut-off for these calls is given here.
Experiments:
[1] = test system: Cladosporium cucumerinum; experiment: Fungicidal activity against Cladosporium cucumerinum assessed as inhibition of mycelial growth measured after 3 to 20 days by agar dilution method; type: functional, organism-based
[2] = test system: Blumeria graminis f. sp. tritici; experiment: Fungicidal activity against Blumeria graminis f. sp. tritici on wheat leaves assessed as colony formation measured at 3.1 ppm; type: functional
[3] = test system: Blumeria graminis f. sp. tritici; experiment: Fungicidal activity against Blumeria graminis f. sp. tritici on wheat leaves assessed as rate of appressorium formation measured at 0.8 ppm after 168 hr; type: functional
[4] = test system: Blumeria graminis f. sp. tritici; experiment: Fungicidal activity against Blumeria graminis f. sp. tritici on wheat leaves assessed as rate of spore germination measured at 12.5 ppm after 12 hr (reference value: 67.4 +/- 8.6%); type: functional
[5] = test system: Blumeria graminis f. sp. tritici; experiment: Fungicidal activity against Blumeria graminis f. sp. tritici on wheat leaves assessed as spore formation measured at 0.2 ppm; type: functional
[6] = test system: Podosphaera fusca; experiment: Fungicidal activity against Sphaerotheca cucurbitae in cucumber assessed as powdery mildew disease control measured after 7 to 10 days by pot test; type: functional
[7] = test system: Cercospora beticola; experiment: Fungicidal activity against Cercospora beticola assessed as inhibition of mycelial growth measured after 3 to 20 days by agar dilution method; type: functional, organism-based
[8] = test system: Blumeria graminis f. sp. tritici; experiment: Fungicidal activity against Blumeria graminis f. sp. tritici on wheat leaves assessed as spore formation measured at 3.1 ppm; type: functional
[9] = test system: Blumeria graminis f. sp. tritici; experiment: Fungicidal activity against Blumeria graminis f. sp. tritici on wheat leaves assessed as colony formation measured at 12.5 ppm; type: functional
[10] = test system: Blumeria graminis f. sp. tritici; experiment: Fungicidal activity against Blumeria graminis f. sp. tritici on wheat (Triticum aestivum, cv. Chihoku) assessed as powdery mildew disease control at 3.1 ppm measured after 5 to 10 days; type: functional
[11] = test system: Verticillium dahliae; experiment: Fungicidal activity against Verticillium dahliae assessed as inhibition of mycelial growth measured after 3 to 20 days by agar dilution method; type: functional, organism-based
[12] = test system: Sclerotinia sclerotiorum; experiment: Fungicidal activity against Sclerotinia sclerotiorum assessed as inhibition of mycelial growth measured after 3 to 20 days by agar dilution method; type: functional, organism-based
[13] = test system: Pythium aphanidermatum; experiment: Fungicidal activity against Pythium aphanidermatum assessed as inhibition of mycelial growth measured after 3 to 20 days by agar dilution method; type: functional, organism-based
[14] = test system: Blumeria graminis f. sp. tritici; experiment: Fungicidal activity against Blumeria graminis f. sp. tritici on wheat (Triticum aestivum, cv. Chihoku) assessed as powdery mildew disease control at 0.8 ppm measured after 5 to 10 days; type: functional
[15] = test system: Fusarium graminearum; experiment: Fungicidal activity against Fusarium graminearum assessed as inhibition of mycelial growth measured after 3 to 20 days by agar dilution method; type: functional, organism-based
[16] = test system: Blumeria graminis f. sp. tritici; experiment: Fungicidal activity against Blumeria graminis f. sp. tritici on wheat leaves assessed as rate of spore germination measured at 12.5 ppm after 24 hr (reference value: 72.2 +/- 4.2%); type: functional
[17] = test system: Taphrina deformans; experiment: Fungicidal activity against Taphrina deformans assessed as inhibition of mycelial growth measured after 3 to 20 days by agar dilution method; type: functional, organism-based
[18] = test system: Blumeria graminis f. sp. tritici; experiment: Fungicidal activity against Blumeria graminis f. sp. tritici on wheat leaves assessed as colony formation measured at 0.2 ppm; type: functional
[19] = test system: Venturia inaequalis; experiment: Fungicidal activity against Venturia inaequalis assessed as inhibition of mycelial growth measured after 3 to 20 days by agar dilution method; type: functional, organism-based
[20] = test system: Phytophthora infestans; experiment: Fungicidal activity against Phytophthora infestans assessed as inhibition of mycelial growth measured after 3 to 20 days by agar dilution method; type: functional, organism-based
[21] = test system: Blumeria graminis f. sp. tritici; experiment: Fungicidal activity against Blumeria graminis f. sp. tritici on wheat leaves assessed as rate of appressorium formation measured at 12.5 ppm after 168 hr; type: functional
[22] = test system: Podosphaera leucotricha; experiment: Fungicidal activity against Podosphaera leucotricha in apple assessed as powdery mildew disease control measured after 7 to 10 days by pot test; type: functional
[23] = test system: Pyricularia oryzae; experiment: Fungicidal activity against Magnaporthe oryzae assessed as inhibition of mycelial growth measured after 3 to 20 days by agar dilution method; type: functional, organism-based
[24] = test system: Blumeria graminis f. sp. tritici; experiment: Fungicidal activity against Blumeria graminis f. sp. tritici on wheat leaves assessed as rate of appressorium formation measured at 0.8 ppm after 76 hr; type: functional
[25] = test system: Phomopsis; experiment: Fungicidal activity against Phomopsis sp. assessed as inhibition of mycelial growth measured after 3 to 20 days by agar dilution method; type: functional, organism-based
[26] = test system: Cercospora; experiment: Fungicidal activity against Cercospora theae assessed as inhibition of mycelial growth measured after 3 to 20 days by agar dilution method; type: functional, organism-based
[27] = test system: Penicillium italicum; experiment: Fungicidal activity against Penicillium italicum assessed as inhibition of mycelial growth measured after 3 to 20 days by agar dilution method; type: functional, organism-based
[28] = test system: Cytospora ceratosperma; experiment: Fungicidal activity against Valsa ceratosperma assessed as inhibition of mycelial growth measured after 3 to 20 days by agar dilution method; type: functional, organism-based
[29] = test system: Blumeria graminis f. sp. tritici; experiment: Fungicidal activity against Blumeria graminis f. sp. tritici on wheat leaves assessed as rate of appressorium formation measured at 0.2 ppm after 76 hr; type: functional
[30] = test system: Venturia inaequalis; experiment: Fungicidal activity against Venturia inaequalis on apple (Malus pumila var. domestica, cv. Rall's Janett) assessed as scab control at 200 ppm measured after 5 to 10 days; type: functional
[31] = test system: Leveillula taurica; experiment: Fungicidal activity against Leveillula taurica in sweet pepper assessed as powdery mildew disease control measured after 7 to 10 days by pot test; type: functional; conditions: Phyllactinia taurica
[32] = test system: Blumeria graminis f. sp. tritici; experiment: Fungicidal activity against Blumeria graminis f. sp. tritici on wheat leaves assessed as rate of appressorium formation measured at 12.5 ppm after 24 hr (reference value: 89.7 +/- 4%); type: functional
[33] = test system: Podosphaera pannosa; experiment: Fungicidal activity against Podosphaera pannosa in rose assessed as powdery mildew disease control measured after 7 to 10 days by pot test; type: functional
[34] = test system: Helicobasidium mompa; experiment: Fungicidal activity against Helicobasidium mompa assessed as inhibition of mycelial growth measured after 3 to 20 days by agar dilution method; type: functional, organism-based
[35] = test system: Monilinia fructicola; experiment: Fungicidal activity against Monilinia fructicola assessed as vacuolated hyphae measured by Transmission electron microscopy; type: functional, organism-based
[36] = test system: Botrytis squamosa; experiment: Fungicidal activity against Botryotinia squamosa assessed as inhibition of mycelial growth measured after 3 to 20 days by agar dilution method; type: functional, organism-based
[37] = test system: Blumeria graminis f. sp. tritici; experiment: Fungicidal activity against Blumeria graminis f. sp. tritici on wheat (Triticum aestivum, cv. Chihoku) assessed as powdery mildew disease control at 0.01 ppm measured after 5 to 10 days; type: functional
[38] = test system: Rhizoctonia solani; experiment: Fungicidal activity against Rhizoctonia solani assessed as inhibition of mycelial growth measured after 3 to 20 days by agar dilution method; type: functional, organism-based
[39] = test system: Blumeria graminis f. sp. tritici; experiment: Fungicidal activity against Blumeria graminis f. sp. tritici on wheat leaves assessed as colony formation measured at 0.8 ppm; type: functional
[40] = test system: Fusarium oxysporum; experiment: Fungicidal activity against Fusarium oxysporum assessed as inhibition of mycelial growth measured after 3 to 20 days by agar dilution method; type: functional, organism-based
[41] = test system: Monilinia fructicola; experiment: Fungicidal activity against Monilinia fructicola assessed as inhibition of mycelial growth measured after 3 to 20 days by agar dilution method; type: functional, organism-based
[42] = test system: Colletotrichum lagenaria; experiment: Fungicidal activity against Colletotrichum lagenaria assessed as inhibition of mycelial growth measured after 3 to 20 days by agar dilution method; type: functional, organism-based

With `O=C(Cc1ccccc1)N/C(=N\OCC1CC1)c1c(C(F)(F)F)ccc(F)c1F` [CYFLUFENAMID] the EC50 [1] was over 100 ppm, the inhibition at 3.1 ppm [2] was 100% and the inhibition at 0.8 ppm [3] was 99.4%. The Activity [4] was 60.7%, the inhibition at 0.2 ppm [5] was 97% and the MIC [6] was under 0.8 µg/mL. The EC50 [7] was 0.3 ppm, the inhibition at 3.1 ppm [8] was 100% and the inhibition at 12.5 ppm [9] was 100%. For the same molecule, the Efficacy [10] was 100%, the EC50 [11] was over 100 ppm and the EC50 [12] was 1 ppm. For the same molecule, the EC50 [13] was over 100 ppm, the Efficacy [14] was 100% and the EC50 [15] was over 100 ppm. It also gave an Activity [16] of 61.5%, an EC50 [17] of 3 ppm and an inhibition at 0.2 ppm [18] of 81.2%. It also gave an EC50 [19] of over 100 ppm, an EC50 [20] of over 100 ppm and an inhibition at 12.5 ppm [21] of 100%. The MIC [22] was under 1.6 µg/mL, the EC50 [23] was 3 ppm and the inhibition at 0.8 ppm [24] was 96.4%. The EC50 [25] was over 100 ppm, the EC50 [26] was over 100 ppm and the EC50 [27] was 7 ppm. It also gave an EC50 [28] of 8 ppm, an inhibition at 0.2 ppm [29] of 77.6% and an Efficacy [30] of 0%. It also gave an MIC [31] of under 0.8 µg/mL, an Activity [32] of 87.9% and an MIC [33] of under 1.6 µg/mL. The EC50 [34] was over 100 ppm, the Activity [35] was “Active” and the EC50 [36] was over 100 ppm. For the same molecule, the Efficacy [37] was 6%, the EC50 [38] was over 100 ppm and the inhibition at 0.8 ppm [39] was 96.9%. For the same molecule, the EC50 [40] was over 100 ppm, the EC50 [41] was 0.01 ppm and the EC50 [42] was over 100 ppm.

Reference: ChEMBL document CHEMBL3045398, “Fungicidal activities of cyflufenamid against various plant-pathogenic fungi” (J Pestic Sci, 2006)
